Format in all cases: cell-based
One experiment deals with T1, G2019S LRRK2 (Homo sapiens, UniProt Q5S007, G2019S).
T1 construct: expressed in transfected cells; host or cells: HEK293 (ATCC CRL-1573), transient transfection, mammalian expression vector with ubiquitin promoter
Put plainly: LRRK2 degradation assay, HiBit-tagged G2019S LRRK2 expressed from plasmid in HEK293 cells (Nano-Glo Dual-Luciferase). The note with it: 24 hours. The essentials:
(§1)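 Degradation read as Nano-Glo HiBiT signal over firefly luciferase (cell number/viability) after 24 h compound exposure of transiently transfected HEK293 expressing C-terminally HiBiT-tagged wildtype or G2019S LRRK2. Data as % DMSO; DC50/Dmax fitted per plate, triplicate plates repeated twice.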

A further experiment has as its target T2, wildtype LRRK2 (Homo sapiens, UniProt Q5S007).
T2 construct: expressed in transfected cells; host or cells: HEK293 (ATCC CRL-1573), transient transfection, mammalian expression vector with ubiquitin promoter
Put plainly: LRRK2 degradation assay, HiBit-tagged wildtype LRRK2 expressed from plasmid in HEK293 cells (Nano-Glo Dual-Luciferase). The following applies: 24 hours; for Dmax: read-out: **WT Dmax (%); for DC50: read-out: *WT DC50. The essentials:
as §1

Experiment [1] concerns the target T3, LRRK2 (endogenous, HiBit tagged) (Homo sapiens, UniProt Q5S007).
T3 construct: endogenous in cells; host or cells: HEK293 cells with HiBit knock-in at the endogenous LRRK2 locus, stably expressing firefly luciferase
Put plainly: Endogenous LRRK2 degradation assay, endogenous gene C-terminally HiBit-tagged in HEK293 cells (Nano-Glo Dual Luciferase). The note with it: 24 hours; for Dmax: read-out: **Endogenous WT Dmax (%); for DC50: read-out: *Endogenous WT DC50. The essentials:
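LRRK2-HiBit quantified via Nano-Glo Dual Luciferase in HEK293 knock-in cells co-expressing firefly luciferase, after 24 h exposure to compound (1 μM final top, 1:3, 11 points). Values normalised to DMSO median per plate and curve-fitted; Alamar Blue viability run alongside.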
In general terms: HiBiT is a short tag that completes a luciferase, so light tracks the accessible tagged protein.

Setting [2] is: HiBit-tagged G2019S LRRK2 in HEK293 cells.
Setting [3] is: HiBit-tagged wildtype LRRK2 in HEK293 cells.
Setting [4] is: endogenous HiBit-tagged LRRK2 in HEK293 cells.
Where [5] appears, read: HiBit-tagged G2019S LRRK2, HEK293 cells.
Setting [6] is: HiBit-tagged wildtype LRRK2, HEK293 cells.
The mark [7] stands for this setting: endogenous HiBit-tagged LRRK2, HEK293 cells.

Like-named read-outs stand apart in the source and are kept apart here. A value given as a limit tells only on which side of the number the result lay.

T3 sequence (Q5S007 whole entry): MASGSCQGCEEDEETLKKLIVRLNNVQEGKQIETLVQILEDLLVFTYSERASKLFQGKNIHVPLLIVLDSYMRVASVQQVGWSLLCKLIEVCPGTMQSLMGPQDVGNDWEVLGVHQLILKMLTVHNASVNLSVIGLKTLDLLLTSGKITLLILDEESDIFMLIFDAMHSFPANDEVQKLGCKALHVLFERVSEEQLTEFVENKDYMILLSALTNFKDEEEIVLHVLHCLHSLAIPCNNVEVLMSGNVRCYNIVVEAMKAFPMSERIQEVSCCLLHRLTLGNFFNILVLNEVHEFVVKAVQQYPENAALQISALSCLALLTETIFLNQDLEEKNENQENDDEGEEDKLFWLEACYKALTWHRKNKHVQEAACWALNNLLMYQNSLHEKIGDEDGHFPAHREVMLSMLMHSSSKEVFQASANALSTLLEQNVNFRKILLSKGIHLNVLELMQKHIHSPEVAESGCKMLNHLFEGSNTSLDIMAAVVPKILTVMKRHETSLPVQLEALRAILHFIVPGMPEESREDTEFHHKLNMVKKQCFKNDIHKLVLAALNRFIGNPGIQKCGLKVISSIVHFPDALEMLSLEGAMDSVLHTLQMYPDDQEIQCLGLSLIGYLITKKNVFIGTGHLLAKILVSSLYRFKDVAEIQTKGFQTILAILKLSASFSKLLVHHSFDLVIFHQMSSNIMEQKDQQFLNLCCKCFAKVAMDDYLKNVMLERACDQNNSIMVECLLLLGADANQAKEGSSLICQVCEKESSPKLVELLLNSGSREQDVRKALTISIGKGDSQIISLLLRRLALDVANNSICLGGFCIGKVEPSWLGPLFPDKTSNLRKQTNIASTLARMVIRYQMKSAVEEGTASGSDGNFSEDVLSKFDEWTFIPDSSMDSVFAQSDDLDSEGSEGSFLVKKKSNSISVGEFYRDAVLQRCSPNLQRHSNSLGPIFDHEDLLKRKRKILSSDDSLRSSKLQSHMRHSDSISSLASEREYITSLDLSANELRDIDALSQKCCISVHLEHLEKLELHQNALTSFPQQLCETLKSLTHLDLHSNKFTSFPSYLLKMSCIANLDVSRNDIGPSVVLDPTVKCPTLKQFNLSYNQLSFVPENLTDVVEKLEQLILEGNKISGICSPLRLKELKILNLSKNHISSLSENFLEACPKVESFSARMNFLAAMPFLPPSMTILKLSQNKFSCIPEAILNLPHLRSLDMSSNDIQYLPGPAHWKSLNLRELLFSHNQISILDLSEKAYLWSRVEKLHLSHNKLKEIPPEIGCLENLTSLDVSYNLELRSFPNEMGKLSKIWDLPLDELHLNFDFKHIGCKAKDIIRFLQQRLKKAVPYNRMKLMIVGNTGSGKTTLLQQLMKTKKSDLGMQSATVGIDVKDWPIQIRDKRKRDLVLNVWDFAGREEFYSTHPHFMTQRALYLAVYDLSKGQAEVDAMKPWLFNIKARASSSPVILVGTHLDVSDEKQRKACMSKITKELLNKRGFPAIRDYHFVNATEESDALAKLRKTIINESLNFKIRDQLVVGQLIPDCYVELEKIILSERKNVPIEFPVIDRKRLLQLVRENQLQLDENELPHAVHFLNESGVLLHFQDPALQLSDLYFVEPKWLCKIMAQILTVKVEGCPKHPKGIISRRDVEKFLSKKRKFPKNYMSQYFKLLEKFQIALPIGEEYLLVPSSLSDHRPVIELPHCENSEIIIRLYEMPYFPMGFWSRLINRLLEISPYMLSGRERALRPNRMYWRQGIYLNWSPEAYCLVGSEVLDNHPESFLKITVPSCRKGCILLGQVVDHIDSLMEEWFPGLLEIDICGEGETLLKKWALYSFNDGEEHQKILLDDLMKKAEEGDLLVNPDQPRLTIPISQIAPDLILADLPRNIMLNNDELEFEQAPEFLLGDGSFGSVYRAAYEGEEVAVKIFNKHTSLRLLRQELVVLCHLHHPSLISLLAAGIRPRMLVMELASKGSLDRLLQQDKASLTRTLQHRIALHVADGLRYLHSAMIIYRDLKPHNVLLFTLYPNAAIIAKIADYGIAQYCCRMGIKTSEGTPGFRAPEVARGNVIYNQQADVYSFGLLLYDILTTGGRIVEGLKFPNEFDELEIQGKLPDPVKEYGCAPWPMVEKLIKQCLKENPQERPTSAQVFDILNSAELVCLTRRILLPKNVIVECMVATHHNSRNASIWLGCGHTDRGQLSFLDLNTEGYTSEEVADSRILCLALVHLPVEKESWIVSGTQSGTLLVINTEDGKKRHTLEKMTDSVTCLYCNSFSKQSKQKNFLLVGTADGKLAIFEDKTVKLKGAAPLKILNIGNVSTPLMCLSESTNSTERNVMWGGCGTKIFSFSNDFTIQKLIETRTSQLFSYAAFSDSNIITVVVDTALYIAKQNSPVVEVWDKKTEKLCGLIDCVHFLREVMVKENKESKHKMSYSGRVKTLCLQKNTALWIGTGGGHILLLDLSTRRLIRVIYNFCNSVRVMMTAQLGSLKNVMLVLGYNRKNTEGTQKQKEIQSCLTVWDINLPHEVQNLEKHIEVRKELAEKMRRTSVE
T2 sequence (Q5S007 whole entry): as above
T1 sequence (Q5S007 whole entry G2019S): as the sequence (Q5S007 whole entry) above, with G2019S counted along it

The DC50 is the concentration at which degradation of the target reaches its halfway point. One may read the Dmax as the greatest extent of degradation seen. For the compound `CC1(Oc2ccc3n[nH]c(-c4cc(N5CC(OC6CCN(CC7CCN(c8ccc9c(c8)C(=O)N(C8CCC(=O)NC8=O)C9=O)CC7)CC6)C5)ncn4)c3c2)CC1` (stereo not drawn) [Compound 130, 2-(2,6-dioxo-3-piperidyl)-5-[4-[[4-[1-[6-[5-(1-methylcyclopropoxy)-2H-indazol-3-yl]pyrimidin-4-yl]azetidin-3-yl]oxy-1-piperidyl]methyl]-1-piperidyl]isoindoline-1,3-dione], the DC50 (at G2019S LRRK2 (setting [2]); at wildtype LRRK2 (setting [3]); in experiment [1] (setting [4])) was less than 10 nM each time. Besides, the greatest degradation seen (Dmax) on G2019S LRRK2 (setting [2]) was 50 to 70%; on wildtype LRRK2 (setting [3]), 50 to 70%; in experiment [1] (setting [4]), no less than 70%.
With `C[C@H]1CN(c2cc(-c3[nH]nc4ccc(OC5(C)CC5)cc34)ncn2)CCN1CC1CCN(CC2CCN(c3cccc4c3C(=O)N(C3CCC(=O)NC3=O)C4=O)CC2)CC1` (stereo partly drawn) [Compound 137, 2-(2,6-dioxo-3-piperidyl)-4-[4-[[4-[[(2S)-2-methyl-4-[6-[5-(1-methylcyclopropoxy)-2H-indazol-3-yl]pyrimidin-4-yl]piperazin-1-yl]methyl]-1-piperidyl]methyl]-1-piperidyl]isoindoline-1,3-dione], the DC50 on G2019S LRRK2 (setting [2]) was less than 10 nM; at wildtype LRRK2 (setting [3]) it was less than 10 nM; in experiment [1] (setting [4]) it was 10 to 50 nM. Also, the Dmax (on G2019S LRRK2 (setting [2]); on wildtype LRRK2 (setting [3]); in experiment [1] (setting [4])) was no less than 70% throughout.
With `C[C@H]1CN(c2cc(-c3[nH]nc4ccc(OC5(C)CC5)cc34)ncn2)CCN1CCC1(F)CCN(CC2CCN(c3ccc4c(c3)CN(C3CCC(=O)NC3=O)C4=O)CC2)CC1` (stereo partly drawn) [Compound 64, 3-[5-[4-[[4-fluoro-4-[2-[(2S)-2-methyl-4-[6-[5-(1-methylcyclopropoxy)-2H-indazol-3-yl]pyrimidin-4-yl]piperazin-1-yl]ethyl]-1-piperidyl]methyl]-1-piperidyl]-1-oxo-isoindolin-2-yl]piperidine-2,6-dione], the DC50 (at G2019S LRRK2 (setting [2]); on wildtype LRRK2 (setting [3]); in experiment [1] (setting [4])) was less than 10 nM in each case. Also, the Dmax (at G2019S LRRK2 (setting [2]); at wildtype LRRK2 (setting [3]); in experiment [1] (setting [4])) was no less than 70% throughout.
`CC1(Oc2ccc3n[nH]c(-c4cc(N5CCC(CN6CCN(CC7CCN(c8ccc9c(c8)C(=O)N(C8CCC(=O)NC8=O)C9=O)CC7)CC6)CC5)ncn4)c3c2)CC1` (stereo not drawn) [Compound 68, 2-(2,6-dioxo-3-piperidyl)-5-[4-[[4-[[1-[6-[5-(1-methylcyclopropoxy)-2H-indazol-3-yl]pyrimidin-4-yl]-4-piperidyl]methyl]piperazin-1-yl]methyl]-1-piperidyl]isoindoline-1,3-dione]: the DC50 (on G2019S LRRK2 (setting [2]); at wildtype LRRK2 (setting [3]); in experiment [1] (setting [4])) was less than 10 nM each time. The Dmax (on G2019S LRRK2 (setting [2]); on wildtype LRRK2 (setting [3]); in experiment [1] (setting [4])) was no less than 70% in each case.
As to `CC1(Oc2ccc3[nH]nc(-c4ccnc(N5CC(CC6CCN(CC7CCN(c8ccc9c(c8)C(=O)N(C8CCC(=O)NC8=O)C9=O)CC7)CC6)C5)c4)c3c2)CC1` (stereo not drawn) [Compound 160, 2-(2,6-dioxo-3-piperidyl)-5-[4-[[4-[[1-[4-[5-(1-methylcyclopropoxy)-1H-indazol-3-yl]-2-pyridyl]azetidin-3-yl]methyl]-1-piperidyl]methyl]-1-piperidyl]isoindoline-1,3-dione], the DC50 (on G2019S LRRK2 (setting [5]); on wildtype LRRK2 (setting [6]); in experiment [1] (setting [7])) was less than 10 nM each time. Also, the Dmax is 50 to 70% at G2019S LRRK2 (setting [5]), 50 to 70% on wildtype LRRK2 (setting [6]) and no less than 70% in experiment [1] (setting [7]).
Consider `C[C@H]1CN(c2cc(-c3n[nH]c4ccc(OC5(C)CC5)cc34)ncn2)CCN1CC1(F)CCN(CC2CCN(c3ccc4c(c3)C(=O)N(C3CCC(=O)NC3=O)C4=O)CC2)CC1` (stereo partly drawn) [Compound 69, 2-(2,6-dioxo-3-piperidyl)-5-[4-[[4-fluoro-4-[[(2S)-2-methyl-4-[6-[5-(1-methylcyclopropoxy)-1H-indazol-3-yl]pyrimidin-4-yl]piperazin-1-yl]methyl]-1-piperidyl]methyl]-1-piperidyl]isoindoline-1,3-dione], for which the DC50 (at G2019S LRRK2 (setting [2]); at wildtype LRRK2 (setting [3]); in experiment [1] (setting [4])) was less than 10 nM throughout. The results for the Dmax (on G2019S LRRK2 (setting [2]); at wildtype LRRK2 (setting [3]); in experiment [1] (setting [4])) were less than 50%, less than 50% and 50 to 70%, respectively.
Take `CC1(Oc2ccc3[nH]nc(-c4cc(N5CCN(C[C@@H]6CC(=O)N(CC7CCN(c8ccc9c(c8)C(=O)N(C8CCC(=O)NC8=O)C9=O)CC7)C6)CC5)ncn4)c3c2)CC1` (single isomer, unassigned) [Compound 121]: the DC50 (at G2019S LRRK2 (setting [2]); at wildtype LRRK2 (setting [3]); in experiment [1] (setting [4])) was less than 10 nM each time. Besides, the Dmax was 50 to 70% at G2019S LRRK2 (setting [2]), 50 to 70% at wildtype LRRK2 (setting [3]) and no less than 70% in experiment [1] (setting [4]).
`C[C@H]1CN(c2cc(-c3n[nH]c4ccc(OC5(C)CC5)cc34)ncn2)CCN1CCC1(F)CCN(CC2CCN(c3ccc4c(c3)C(=O)N(C3CCC(=O)NC3=O)C4=O)CC2)CC1` (stereo partly drawn) [Compound 52, 2-(2,6-dioxo-3-piperidyl)-5-[4-[[4-fluoro-4-[2-[(2S)-2-methyl-4-[6-[5-(1-methylcyclopropoxy)-1H-indazol-3-yl]pyrimidin-4-yl]piperazin-1-yl]ethyl]-1-piperidyl]methyl]-1-piperidyl]isoindoline-1,3-dione]: the DC50 on G2019S LRRK2 (setting [2]) is less than 10 nM; on wildtype LRRK2 (setting [3]), less than 10 nM; in experiment [1] (setting [4]), 10 to 50 nM. Further, the Dmax on G2019S LRRK2 (setting [2]) was 50 to 70%; at wildtype LRRK2 (setting [3]), 50 to 70%; in experiment [1] (setting [4]), no less than 70%.
For the compound `CC1(Oc2ccc3n[nH]c(-c4cc(N5CCC(CN6CCN(CC7CCN(c8ccc9c(c8)CN(C8CCC(=O)NC8=O)C9=O)CC7)CC6)CC5)ncn4)c3c2)CC1` (stereo not drawn) [Compound 112, 3-[5-[4-[[4-[[1-[6-[5-(1-methylcyclopropoxy)-2H-indazol-3-yl]pyrimidin-4-yl]-4-piperidyl]methyl]piperazin-1-yl]methyl]-1-piperidyl]-1-oxo-isoindolin-2-yl]piperidine-2,6-dione], the DC50 (at G2019S LRRK2 (setting [2]); on wildtype LRRK2 (setting [3]); in experiment [1] (setting [4])) was less than 10 nM throughout. For the same compound, the Dmax (at G2019S LRRK2 (setting [2]); on wildtype LRRK2 (setting [3]); in experiment [1] (setting [4])) was no less than 70% each time.

The record behind these values is patent US12559506B2, “Indazole based compounds and associated methods of use” (Arvinas Operations, Inc., priority 2021, dated 2026).
